# Experimental data from patent US20220160718A1, “COMPOSITIONS AND METHODS OF TREATING CANCER” (Bristol-Myers Squibb Company, priority 2018, published 2022).
# T1: mouse PD-1 (Mus musculus, UniProt Q02242)
# T1 construct: expressed in transfected cells; host or cells: CHO cells
# T1 sequence (Q02242 25-288): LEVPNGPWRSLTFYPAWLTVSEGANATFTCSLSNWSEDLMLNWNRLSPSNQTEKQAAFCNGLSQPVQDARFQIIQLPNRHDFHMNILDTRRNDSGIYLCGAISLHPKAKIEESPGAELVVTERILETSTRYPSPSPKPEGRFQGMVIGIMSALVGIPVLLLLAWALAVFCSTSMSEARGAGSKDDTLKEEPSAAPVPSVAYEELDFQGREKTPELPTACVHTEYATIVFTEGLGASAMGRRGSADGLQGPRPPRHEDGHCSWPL
# B1: Antibody B: anti-mouse PD-1 antibody generated by murinizing the Fc tail of 4H2; contains a mouse IgG1 D265A; SEQ ID NO: 1 and 2 (protein)
# light: DTVLTQSPALAVSLGQRVTISCKASETVSSSMYSYIHWYQQKPGQQPKLLIYRASNLESGVPARFSGSGSGTDFTLTIDPVEADDVATYFCQQSWNPWTFGGGTKLELKRADAAPTVSIFPPSSEQLTSGGASVVCFLNNFYPKDINVKWKIDGSERQNGVLNSWTDQDSKDSTYSMSSTLTLTKDEYERHNSYTCEATHKTSTSPIVKSFNRNEC
# heavy: QVQLKESGPGLVQPSQTLSLTCTVSGFSLTSYNVHWVRQPPGKGLEWMGGMRYNEDTSYNSALKSRLSISRDTSKNQVFLKMNSLQTDDTGTYYCTRDAVYGGYGGWFAYWGQGTLVTVSSAKTTPPSVYPLAPGSAAQTNSMVTLGCLVKGYFPEPVTVTWNSGSLSSGVHTFPAVLQSDLYTLSSSVTVPSSTWPSETVTCNVAHPASSTKVDKKIVPRDCGCKPCICTVPEVSSVFIFPPKPKDVLTITLTPKVTCVVVDISKDDPEVQFSWFVDDVEVHTAQTQPREEQFNSTFRSVSELPIMHQDWLNGKEFKCRVNSAAFPAPIEKTISKTKGRPKAPQVYTIPPPKEQMAKDKVSLTCMITDFFPEDITVEWQWNGQPAENYKNTQPIMDTDGSYFVYSKLNVQKSNWEAGNTFTCSVLHEGLHNHHTEKSLSHSPGK
# modifications: Antibody B Light chain variable; Antibody B heavy chain variable
# Assays:
# [1] = test system: Mouse colon tumor MC38 cells; assay: Mouse colon tumor (MC38) model, anti-tumor efficacy; format: in vivo
# Method: (§1) Female C57BL/6 mice from Charles River Laboratories (Raleigh, N.C.) were received in house at age 6-8 weeks and acclimated for 3-7 days prior to implant. Mouse colon tumor MC38 cells were implanted subcutaneously at a concentration of 1×10^7 cells/mL, 0.1 mL per injection, using a 1 mL tuberculin syringe with 25 g needle.
# On Day 6 post implant, mice were randomized and sorted into groups with 10 mice per group. […] Antibody B was administered i.p. every 4 days for a total of 3 doses.
# (§2) Tumors and group body weights were weighed and measured twice weekly until tumors reached a volume of approximately 1500 mm^3. Animals were euthanized if the tumor reached a volume greater than approximately 1500 mm^3 or appeared ulcerated. Mean, median and/or survival plots as well as number of tumor-free mice were calculated to determine efficacy.
# [2] = test system: Mouse colon tumor CT26 cells; assay: Mouse colon tumor (CT26) model, anti-tumor efficacy; format: in vivo
# Method: as §1, with “BALB/C” for “C57BL/6”, “ENVIGO (Frederick, Md.)” for “Charles River Laboratories (Raleigh, N.C.)”, “implantation.” for “implant.”, “CT26” for “MC38”
# On Day 10 post implant, mice were randomized and sorted into groups with 10 mice per group. […] Antibody B was administered i.p. every 4 days for a total of 3 doses.
# as §2
# [3] = target: T2, human CCR2 (Homo sapiens, UniProt P41597); assay: Human CCR2-mediated CD11b integrin upregulation in whole blood; format: cell-based; conditions: human pharmacology, MCP-1 10 nM, read-out: CCR2 Potency, ligand-induced integrin upregulation in whole blood
# T2 sequence (P41597 whole entry): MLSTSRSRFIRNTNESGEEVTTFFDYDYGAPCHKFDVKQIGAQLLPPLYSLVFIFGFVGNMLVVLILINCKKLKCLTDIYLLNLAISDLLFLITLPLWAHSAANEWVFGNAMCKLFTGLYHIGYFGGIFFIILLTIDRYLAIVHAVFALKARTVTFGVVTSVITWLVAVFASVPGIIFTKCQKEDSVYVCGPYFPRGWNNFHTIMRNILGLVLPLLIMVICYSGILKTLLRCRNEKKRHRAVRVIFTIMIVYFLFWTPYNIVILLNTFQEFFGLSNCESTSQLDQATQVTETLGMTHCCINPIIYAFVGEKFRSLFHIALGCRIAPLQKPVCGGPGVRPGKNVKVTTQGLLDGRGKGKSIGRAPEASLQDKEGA
# Method: A CCR2-dependent CD11b upregulation assay was established with human whole blood. […] The reactions were incubated for 30 minutes at 37° C. […] The samples were then incubated for 30 minutes on ice in the dark. […] Data acquisition and analysis were performed using CellQuestPro™ software. A sequential gating strategy was used to analyze the CD14high CD11b+ monocyte population. […] A similar procedure for mouse CCR5 was adopted except that MIP-1beta (50 nM) was used as the ligand.
# [4] = Mouse PK of Compound C; format: in vivo
# [5] = target: T3, mouse CCR2 (Mus musculus, UniProt P51683); assay: Mouse CCR2 potency (assay not specified)
# T3 construct: WEHI-274.1 mouse monocyte line; endogenous in cells; host or cells: WEHI-274.1 mouse monocyte line
# T3 sequence (P51683 whole entry): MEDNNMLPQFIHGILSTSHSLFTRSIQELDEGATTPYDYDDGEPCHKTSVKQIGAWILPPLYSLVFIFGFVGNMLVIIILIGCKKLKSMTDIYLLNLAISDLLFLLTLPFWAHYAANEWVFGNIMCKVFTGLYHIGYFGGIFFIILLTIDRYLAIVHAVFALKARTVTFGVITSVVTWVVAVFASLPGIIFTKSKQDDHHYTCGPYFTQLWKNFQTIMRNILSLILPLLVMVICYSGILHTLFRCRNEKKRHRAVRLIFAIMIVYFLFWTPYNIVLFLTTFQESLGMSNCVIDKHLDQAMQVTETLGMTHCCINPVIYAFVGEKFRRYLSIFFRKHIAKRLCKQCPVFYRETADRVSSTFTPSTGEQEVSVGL
# [6] = target: T4, human CCR5 (Homo sapiens, UniProt P51681); assay: Inhibition of 125I-MIP-1beta binding to human T cells (human CCR5); parameters: hPBMCs and human T cells were isolated from human leukopak; endogenous in cells; host or cells: human T cells isolated from human leukopak; conditions: human pharmacology, 125I-human MIP-1beta, read-out: CCR5 Potency, binding on CCR5-expressing cells (displacing 125I-labelled ligand)
# T4 sequence (P51681 whole entry): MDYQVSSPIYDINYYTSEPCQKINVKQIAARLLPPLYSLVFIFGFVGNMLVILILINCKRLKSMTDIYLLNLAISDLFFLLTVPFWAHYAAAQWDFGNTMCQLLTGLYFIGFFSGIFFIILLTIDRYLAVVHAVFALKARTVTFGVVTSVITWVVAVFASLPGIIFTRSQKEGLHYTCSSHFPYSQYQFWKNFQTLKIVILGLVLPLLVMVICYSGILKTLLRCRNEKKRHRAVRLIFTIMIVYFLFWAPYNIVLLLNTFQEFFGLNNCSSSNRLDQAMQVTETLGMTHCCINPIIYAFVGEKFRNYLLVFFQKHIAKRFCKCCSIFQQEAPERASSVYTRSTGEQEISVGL
# Method: All conditions were tested in duplicate.
# [7] = target: T4, human CCR5; assay: Human CCR5-mediated calcium flux in HT1080/CCR5 cells; format: cell-based; conditions: human pharmacology, MIP-1beta 50 nM, read-out: CCR5 Potency, ligand-induced calcium flux in cells
# Method: (§3) All samples were tested in duplicate.
# [8] = target: T4, human CCR5; assay: Human CCR5-mediated CD11b integrin upregulation in whole blood; format: cell-based; parameters: established with human whole blood; from tissue; host or cells: human whole blood; conditions: human pharmacology, MIP-1beta 50 nM, read-out: CCR5 Potency, ligand-induced integrin upregulation in whole blood
# [9] = target: T2, human CCR2; assay: Human CCR2-mediated calcium flux in THP-1 cells; format: cell-based; parameters: established with the human monocytic cell line, THP-1; endogenous in cells; host or cells: THP-1 human monocytic cell line; conditions: human pharmacology, human MCP-1 10 nM, read-out: CCR2 Potency, ligand-induced calcium flux in cells
# Method: as §3
# [10] = Tolerability in MC38 tumor-bearing mice; format: in vivo; conditions: MC38 model; alone or in combination
# Method: as §2
# [11] = target: T1, mouse PD-1; assay: Direct binding of anti-PD-1 mAb to mouse PD-1 on CHO transfectants; conditions: mouse potency; mouse PD1-expressing CHO cells
# Method: Assays for Direct Binding of Anti-PD-1 Monoclonal Antibody (mAb) to PD1 Stably Expressed on CHO Transfectants
# mAbs against human and mouse PD-1 were serially diluted and incubated with CHO cell transfectants stably expressing human and mouse PD-1, respectively, followed by detection with a FITC-conjugated secondary to mouse IgG Fcγ.
# [12] = Tolerability in CT26 tumor-bearing mice; format: in vivo; conditions: CT26 model; alone or in combination
# Method: as §2
# [13] = target: T1, mouse PD-1; assay: Blocking binding of PD-L1 to mouse PD-1 on CHO transfectants; conditions: mouse potency; mouse PD-L1, CHO mouse PD-1; read-out: Blocking PD-L1 binding to PD1-expressing cells for IC50
# Method: CHO transfectants stably expressing human and mouse PD-1 were pre-incubated with titrated mAbs against human and mouse PD-1, respectively, followed by addition of PD-L1-Fc at 2 μg/mL. Cell-bound PD-L1-Fc was detected with a FITC-conjugated secondary to human IgG Fcγ.
# [14] = target: T1, mouse PD-1; assay: Blocking binding of PD-L2 to mouse PD-1 on CHO transfectants; conditions: mouse potency; mouse PD-L2, CHO mouse PD-1; read-out: Blocking PD-L2 binding to PD1-expressing cells for IC50
# Method: CHO transfectants stably expressing human and mouse PD-1 were pre-incubated with titrated mAbs against human and mouse PD-1, respectively, followed by addition of PD-L2-Fc at 15 μg/ml. Cell-bound PD-L2-Fc was detected with a FITC-conjugated secondary to human IgG Fc.
molecule,measurement,setting,value
"CCC[C@@H]1C[C@H](N(C)C(C)C)CC[C@@H]1N1CC[C@H](Nc2ncnc3ccc(C(F)(F)F)cc23)C1=O [Compound A, (S)-1-((1S,2R,4R)-4-(isopropyl(methyl)amino)-2-propylcyclohexyl)-3-((6-(trifluoromethyl)quinazolin-4-yl)amino)pyrrolidin-2-one]",Tumor-free mice,"[1]; MC38 Study #1, Compound A 25 mg/kg PO BID 28 days alone",0/10
same,Tumor-free mice,"[1]; MC38 Study #1, Compound A 50 mg/kg PO BID 28 days alone",0/10
same,Tumor-free mice,"[1]; MC38 Study #1, Compound A 100 mg/kg PO BID 28 days alone",0/10
same,Tumor-free mice,"[1]; MC38 Study #2, Compound A 6.25 mg/kg PO BID 28 days alone",0/10
same,Tumor-free mice,"[1]; MC38 Study #2, Compound A 50 mg/kg PO BID 28 days alone",0/10
same,Tumor-free mice,[2]; Compound A 12.5 mg/kg PO BID 28 days alone,0/10
same,Tumor-free mice,[2]; Compound A 25 mg/kg PO BID 28 days alone,0/10
same,Tumor-free mice,[2]; Compound A 50 mg/kg PO BID 28 days alone,0/10
"CC(=O)N[C@@H]1C[C@H](NC(C)(C)C)CC[C@@H]1N1CC[C@H](Nc2ncnc3cc(C(C)(C)C)nn23)C1=O [Compound C, N-((1R,2S,5R)-5-(tert-butylamino)-2-((S)-3-(7-tert-butylpyrazolo[1,5-a][1,3,5]triazin-4-ylamino)-2-oxopyrrolidin-1-yl)cyclohexyl)acetamide]",IC50,[3],4.8 nM
same,mouse PK,[4],poor
same,mouse CCR2 potency,[5],poor
same,IC50,[6],3.6 nM
same,IC50,[7],2 nM
same,IC50,[8],5.7 nM
same,IC50,[9],2.9 nM
B1,tolerability,[10],well tolerated
same,Tumor-free mice,"[1]; MC38 Study #1, Antibody B 10 mg/kg i.p., 3 doses, alone",1/10
same,Tumor-free mice,"[1]; MC38 Study #2, Antibody B 10 mg/kg, 3 doses, alone",0/10
same,Tumor-free mice,"[2]; Antibody B 10 mg/kg, 3 doses, alone",0/10
same,EC50,[11],2.9 nM
same,tolerability,[12],well tolerated
same,IC50,[13],3.6 nM
same,IC50,[14],4.9 nM
